According to patent US20250114338A1, “TETRAHYDRO-PYRIDO[3,4-b]INDOLE ESTROGEN RECEPTOR MODULATORS AND USES THEREOF” (Genentech, Inc., priority 2014, published 2025):

Test system: ER-alpha MCF7
Experiment: ER-alpha MCF7 HCS EC50; stated as measured by in vitro cell proliferation assays of Examples 902 and 903
Type: cell-based
Conditions: Homo sapiens, MCF7, MCF7 cells; Table 2
How it was run: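 MCF7 cells seeded 1000-2000 cells/well for 16 h, then treated with nine-point 1:2 DMSO dilution series in quadruplicate at 37 °C, 5% CO2 for 4 days. Viable cells quantified by CellTiter-Glo ATP luminescence; EC50 calculated. Controls: fulvestrant at final 100 nM, DMSO 0.2% v/v.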

SMILES	EC50
C[C@@H]1Cc2c([nH]c3ccc(F)cc23)[C@@H](c2c(F)cc(OCCN3CC(CF)C3)cc2F)N1CC(C)(C)F [Example 241, (1R,3R)-1-(2,6-difluoro-4-(2-(3-(fluoromethyl)azetidin-1-yl)ethoxy)phenyl)-6-fluoro-2-(2-fluoro-2-methylpropyl)-3-methyl-2,3,4,9-tetrahydro-1H-pyrido[3,4-b]indole]	0.381 nM
C[C@@H]1Cc2c([nH]c3ccc(F)cc23)[C@@H](c2c(F)cc(OC3CN(CCCF)C3)cc2F)N1CC(C)(C)F [Example 242, (1R,3R)-1-(2,6-difluoro-4-((1-(3-fluoropropyl)azetidin-3-yl)oxy)phenyl)-6-fluoro-2-(2-fluoro-2-methylpropyl)-3-methyl-2,3,4,9-tetrahydro-1H-pyrido[3,4-b]indole]	5.42 nM
C[C@@H]1Cc2c([nH]c3ccccc23)[C@@H](c2c(F)cc(OCCN3CC(CF)C3)cc2F)N1CC1(CO)CC1 [Example 243, (1-(((1R,3R)-1-(2,6-difluoro-4-(2-(3-(fluoromethyl)azetidin-1-yl)ethoxy)phenyl)-3-methyl-1,3,4,9-tetrahydro-2H-pyrido[3,4-b]indol-2-yl)methyl)cyclopropyl) methanol]	2 nM
C[C@H]1Cc2c([nH]c3ccc(Cl)cc23)[C@H](c2c(F)cc(OC3CN(CCCF)C3)cc2F)N1CC(C)(C)F [Example 244, (1S,3S)-6-chloro-1-(2,6-difluoro-4-((1-(3-fluoropropyl)azetidin-3-yl)oxy)phenyl)-2-(2-fluoro-2-methylpropyl)-3-methyl-2,3,4,9-tetrahydro-1H-pyrido[3,4-b]indole]	63 nM
C[C@H]1Cc2c([nH]c3ccc(F)cc23)[C@H](c2c(F)cc(OCCN3CC(CF)C3)cc2F)N1CC(C)(C)F [Example 245, (1S,3S)-1-(2,6-difluoro-4-(2-(3-(fluoromethyl)azetidin-1-yl)ethoxy)phenyl)-6-fluoro-2-(2-fluoro-2-methylpropyl)-3-methyl-2,3,4,9-tetrahydro-1H-pyrido[3,4-b]indole]	35 nM
C[C@@H]1Cc2c([nH]c3ccccc23)[C@@H](c2c(F)cc(OC3CN(CCCF)C3)cc2F)N1CC1(C)COC1 [Example 246, (1R,3R)-1-[2,6-difluoro-4-[1-(3-fluoropropyl)azetidin-3-yl]oxy-phenyl]-3-methyl-2-[(3-methyloxetan-3-yl)methyl]-1,3,4,9-tetrahydropyrido[3,4-b]indole]	0.358 nM
C[C@@H]1Cc2c([nH]c3cccc(F)c23)[C@@H](c2c(F)cc(OCCN3CC(CF)C3)cc2F)N1CC(C)(C)F [Example 247, (1R,3R)-1-(2,6-difluoro-4-(2-(3-(fluoromethyl)azetidin-1-yl)ethoxy)phenyl)-5-fluoro-2-(2-fluoro-2-methylpropyl)-3-methyl-2,3,4,9-tetrahydro-1H-pyrido[3,4-b]indole]	4.34 nM
C[C@@H]1Cc2c([nH]c3cc(F)ccc23)[C@@H](c2c(F)cc(OC3CN(CCCF)C3)cc2F)N1CC(C)(C)F [Example 248, (1R,3R)-1-(2,6-difluoro-4-((1-(3-fluoropropyl)azetidin-3-yl)oxy)phenyl)-7-fluoro-2-(2-fluoro-2-methylpropyl)-3-methyl-2,3,4,9-tetrahydro-1H-pyrido[3,4-b]indole]	0.518 nM
C[C@@H]1Cc2c([nH]c3cccc(F)c23)[C@@H](c2c(F)cc(OC3CN(CCCF)C3)cc2F)N1CC(C)(C)F [Example 249, (1R,3R)-1-(2,6-difluoro-4-((1-(3-fluoropropyl)azetidin-3-yl)oxy)phenyl)-5-fluoro-2-(2-fluoro-2-methylpropyl)-3-methyl-2,3,4,9-tetrahydro-1H-pyrido[3,4-b]indole]	0.511 nM
C[C@@H]1Cc2c([nH]c3ccccc23)[C@@H](c2ccc(OCCN3CC[C@@H](CF)C3)cc2)N1CC(C)(C)F [Example 250, (1R,3R)-2-(2-fluoro-2-methyl-propyl)-1-[4-[2-[(3R)-3-(fluoromethyl)pyrrolidin-1-yl]ethoxy]phenyl]-3-methyl-1,3,4,9-tetrahydropyrido[3,4-b]indole]	0.275 nM
C[C@H]1Cc2c([nH]c3cccc(F)c23)[C@H](c2c(F)cc(OCCN3CC(CF)C3)cc2F)N1CC(C)(C)F [Example 251, (1S,3S)-1-(2,6-difluoro-4-(2-(3-(fluoromethyl)azetidin-1-yl)ethoxy)phenyl)-5-fluoro-2-(2-fluoro-2-methylpropyl)-3-methyl-2,3,4,9-tetrahydro-1H-pyrido[3,4-b]indole]	21 nM
C[C@H]1Cc2c([nH]c3cc(F)ccc23)[C@H](c2c(F)cc(OC3CN(CCCF)C3)cc2F)N1CC(C)(C)F [Example 252, (1S,3S)-1-(2,6-difluoro-4-((1-(3-fluoropropyl)azetidin-3-yl)oxy)phenyl)-7-fluoro-2-(2-fluoro-2-methylpropyl)-3-methyl-2,3,4,9-tetrahydro-1H-pyrido[3,4-b]indole]	50 nM
C[C@H]1Cc2c([nH]c3cccc(F)c23)[C@H](c2c(F)cc(OC3CN(CCCF)C3)cc2F)N1CC(C)(C)F [Example 253, (1S,3S)-1-(2,6-difluoro-4-((1-(3-fluoropropyl)azetidin-3-yl)oxy)phenyl)-5-fluoro-2-(2-fluoro-2-methylpropyl)-3-methyl-2,3,4,9-tetrahydro-1H-pyrido[3,4-b]indole]	35 nM
C[C@@H]1Cc2c([nH]c3ccccc23)[C@@H](c2c(F)cc(OCCN3CC(CF)C3)cc2F)N1CC(=O)N(C)C [Example 254, 2-[(1R,3R)-1-[2,6-difluoro-4-[2-[3-(fluoromethyl)azetidin-1-yl]ethoxy]phenyl]-3-methyl-1,3,4,9-tetrahydropyrido[3,4-b]indol-2-yl]-N,N-dimethyl-acetamide]	40 nM
C[C@@H]1Cc2c([nH]c3ccccc23)[C@@H](c2c(F)cc(OCCN3CC(CF)C3)cc2F)N1CC(C)(F)CO (stereo partly drawn) [Example 255, 3-((1R,3R)-1-(2,6-difluoro-4-(2-(3-(fluoromethyl)azetidin-1-yl)ethoxy)phenyl)-3-methyl-1,3,4,9-tetrahydro-2H-pyrido[3,4-b]indol-2-yl)-2-fluoro-2-methylpropan-1-ol]	0.01 nM
Cc1cc(OC2CN(CCCF)C2)ccc1[C@@H]1c2[nH]c3ccccc3c2C[C@@H](C)N1CC(C)(C)F [Example 256, (1R,3R)-2-(2-fluoro-2-methyl-propyl)-1-[4-[1-(3-fluoropropyl)azetidin-3-yl]oxy-2-methyl-phenyl]-3-methyl-1,3,4,9-tetrahydropyrido[3,4-b]indole]	1.69 nM
CC(C)(F)CN1[C@H](c2c(F)cc(OCCN3CC(CF)C3)cc2F)c2[nH]c3ccccc3c2CC1(C)C [Example 257, (1R)-1-[2,6-difluoro-4-[2-[3-(fluoromethyl)azetidin-1-yl]ethoxy]phenyl]-2-(2-fluoro-2-methyl-propyl)-3,3-dimethyl-4,9-dihydro-1H-pyrido[3,4-b]indole]	1.09 nM
CC(C)(F)CN1[C@@H](c2c(F)cc(OCCN3CC(CF)C3)cc2F)c2[nH]c3ccccc3c2CC1(C)C [Example 258, (S)-1-(2,6-difluoro-4-(2-(3-(fluoromethyl)azetidin-1-yl)ethoxy)phenyl)-2-(2-fluoro-2-methylpropyl)-3,3-dimethyl-2,3,4,9-tetrahydro-1H-pyrido[3,4-b]indole]	31 nM
